Results on two compounds are retold here after US8796224B2, “Methods for preparing purified lipopeptides” (priority 2000, dated 2014).

The nature of data set [1]: Hygroscopicity of the amorphous preparation. The format is physicochemical. Conditions: amorphous daptomycin preparation.
The next data set has as its system susceptible strains. Briefly: Minimum inhibitory concentration (MIC) in in vitro experiments. The note with it: against susceptible strains, compared with vancomycin, 'typically'. The format is cell-based, gram-positive organisms.

By solubility is commonly meant the concentration that dissolves in the medium under given conditions. A low value points to a poorly soluble substance.

≈ marks a conversion by molar mass, not a printed value.

Consider `CCCCCCCCCCC(=O)NC(Cc1c[nH]c2ccccc12)C(=O)NC(CC(N)=O)C(=O)NC(CC(=O)O)C(=O)NC1C(=O)NCC(=O)NC(CCCN)C(=O)NC(CC(=O)O)C(=O)NC(C)C(=O)NC(CC(=O)O)C(=O)NCC(=O)NC(CO)C(=O)NC(C(C)CC(=O)O)C(=O)NC(CC(=O)c2ccccc2N)C(=O)OC1C` (centres unmarked) [CB-131547], for which the solubility in “physchem” (solubility in normal saline) was roughly 80 mg/mL (≈ 48.9 mM).
`CCCCCCCCCC(=O)N[C@@H](Cc1c[nH]c2ccccc12)C(=O)N[C@H](CC(N)=O)C(=O)N[C@@H](CC(=O)O)C(=O)N[C@@H]1C(=O)NCC(=O)N[C@@H](CCCN)C(=O)N[C@@H](CC(=O)O)C(=O)N[C@H](C)C(=O)N[C@@H](CC(=O)O)C(=O)NCC(=O)N[C@H](CO)C(=O)N[C@@H]([C@H](C)CC(=O)O)C(=O)N[C@@H](CC(=O)c2ccccc2N)C(=O)O[C@@H]1C` [daptomycin]: the hygroscopicity entry in data set [1] is “hygroscopic”. The solubility in the data set “physchem” (solubility in ethanol) was 2.8 mg/mL (≈ 1.73 mM); in the data set “physchem” (solubility in water), greater than 1000 mg/mL. For the same compound, the “MIC value, fold lower than that of vancomycin” value in the data set on susceptible strains is listed as 4 fold.
